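These data come from cells grown in 96-well plates and exposed to compound for 48 hours at five concentrations. The concentration for 50% growth inhibition is given as GI50.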 Calls of active or inactive are those of the source. No stated cut-off is given here; in the data, active = GI50 up to about 1.1 µM and inactive = higher.
Legend:
Assay in all cases: NCI anticancer screen, dose series, 48 h
UACC-62 = tested on: UACC-62
HOP-92 = tested on: HOP-92
MDA-N = tested on: MDA-N
786-0 = tested on: 786-0
MOLT-4 = tested on: MOLT-4
SN12C = tested on: SN12C
OVCAR-5 = tested on: OVCAR-5
HCT-116 = tested on: HCT-116
HT-29 = tested on: HT-29
RPMI-8226 = tested on: RPMI-8226
SK-MEL-2 = tested on: SK-MEL-2
T47D = tested on: T47D
SK-OV-3 = tested on: SK-OV-3
PC-3 = tested on: PC-3
COLO 205 = tested on: COLO 205
SF-539 = tested on: SF-539
UACC-257 = tested on: UACC-257
OVCAR-3 = tested on: OVCAR-3
NCI-H460 = tested on: NCI-H460
ACHN = tested on: ACHN

Measured: GI50

CC(NC(=O)CNP(=O)(c1ccccc1)c1ccccc1)C(=O)NC(Cc1ccccc1)C(=O)OCc1ccccc1 (stereo unspecified)
inactive: UACC-62 36.3 µM | HOP-92 > 100 µM | MDA-N 43.3 µM | 786-0 22.2 µM | MOLT-4 20.5 µM | SN12C 42.7 µM | OVCAR-5 > 100 µM | HCT-116 34.9 µM | HT-29 92.9 µM | RPMI-8226 33 µM | SK-MEL-2 51.2 µM | T47D > 100 µM | SK-OV-3 21 µM | PC-3 60.7 µM | COLO 205 > 10 µM | SF-539 62.2 µM | UACC-257 > 100 µM | OVCAR-3 43 µM

O=C(/C=C/c1cc2ccccc2o1)N1CCN(c2ccccn2)CC1
inactive: UACC-62 86.7 µM | HOP-92 60.5 µM | MDA-N > 100 µM | 786-0 > 100 µM | MOLT-4 19 µM | SN12C > 100 µM | OVCAR-5 > 100 µM | HCT-116 85.3 µM | HT-29 68.7 µM | RPMI-8226 > 100 µM | SK-MEL-2 > 100 µM | T47D 44.3 µM | NCI-H460 91.6 µM | SK-OV-3 > 100 µM | PC-3 50.4 µM | COLO 205 85.7 µM | SF-539 > 100 µM | UACC-257 > 100 µM | OVCAR-3 62.7 µM

CCCNc1c(Cl)cc(Cl)c2[nH]c3ccccc3c(=O)c12
inactive: ACHN 24 µM | UACC-62 45.5 µM | HOP-92 3.42 µM | MDA-N 50.6 µM | 786-0 30.2 µM | MOLT-4 32.5 µM | SN12C 95.9 µM | OVCAR-5 > 100 µM | HCT-116 43.6 µM | HT-29 22.5 µM | RPMI-8226 30.8 µM | SK-MEL-2 39.9 µM | T47D > 100 µM | SK-OV-3 75.9 µM | PC-3 37.1 µM | COLO 205 42 µM | SF-539 32.4 µM | UACC-257 48.3 µM | OVCAR-3 48.2 µM

CC(C)(C)N1C(=O)[N-]/[N+](=C(/C(c2ccccc2)=[N+]2/[N-]C(=O)N(C(C)(C)C)C2=O)c2ccccc2)C1=O
inactive: ACHN > 100 µM | UACC-62 > 100 µM | HOP-92 > 100 µM | MDA-N > 100 µM | 786-0 > 100 µM | MOLT-4 > 100 µM | SN12C > 100 µM | OVCAR-5 > 100 µM | HCT-116 > 100 µM | RPMI-8226 > 100 µM | SK-MEL-2 > 100 µM | T47D > 100 µM | NCI-H460 > 100 µM | SK-OV-3 > 100 µM | PC-3 > 100 µM | COLO 205 > 100 µM | SF-539 > 100 µM | UACC-257 > 100 µM | OVCAR-3 > 100 µM

CC(=O)NNc1nc(C)c(C(/C=C/c2ccc3c(c2)OCO3)=N/NC(=O)c2ccncc2)s1
inactive: ACHN > 100 µM | UACC-62 > 100 µM | HOP-92 > 100 µM | MDA-N > 100 µM | 786-0 > 100 µM | MOLT-4 > 100 µM | SN12C > 100 µM | OVCAR-5 > 100 µM | HCT-116 > 100 µM | HT-29 > 100 µM | RPMI-8226 > 100 µM | SK-MEL-2 > 100 µM | T47D > 100 µM | NCI-H460 > 100 µM | SK-OV-3 > 100 µM | PC-3 > 100 µM | SF-539 > 100 µM | UACC-257 > 100 µM | OVCAR-3 > 100 µM

CC(C)N(c1cc2c(cc1F)c(=O)c(C(=O)O)cn2-c1ccc(N2CCN(C)CC2)cn1)C(C)C
inactive: UACC-62 > 10 µM | HOP-92 > 100 µM | MDA-N > 100 µM | 786-0 > 100 µM | MOLT-4 > 100 µM | SN12C > 100 µM | OVCAR-5 > 100 µM | HCT-116 > 100 µM | HT-29 > 100 µM | RPMI-8226 > 100 µM | T47D > 100 µM | NCI-H460 > 100 µM | SK-OV-3 > 100 µM | PC-3 > 100 µM | COLO 205 > 100 µM | SF-539 > 100 µM | UACC-257 > 100 µM | OVCAR-3 > 100 µM

CCOC(=O)c1ccc(/N=C2\Sc3nc4ccccc4n3\C2=N\c2ccc(C(=O)OCC)cc2)cc1
inactive: ACHN 22.3 µM | UACC-62 16.1 µM | HOP-92 12.8 µM | MDA-N 18.5 µM | 786-0 11.8 µM | MOLT-4 9.77 µM | SN12C 40.6 µM | OVCAR-5 60 µM | HCT-116 6.58 µM | HT-29 19.6 µM | SK-MEL-2 39.3 µM | T47D 48.1 µM | NCI-H460 22.5 µM | SK-OV-3 40.8 µM | PC-3 37.7 µM | COLO 205 38.5 µM | SF-539 21 µM | UACC-257 31.5 µM | OVCAR-3 12.9 µM
